In patent publication US20200061062A1, “INHIBITORS OF HUMAN PHOSPHATIDYLINOSITOL 3-KINASE DELTA” (ICOS Corporation, priority 2000, published 2020):
Read-outs that look alike come from different tables or passages of the source.

Tests used:
T cell proliferation = assay: Stimulated T cell proliferation (Mouse TCE Stim, Table 4); type: cell-based; settings: stimulated T cell proliferation, read-out: Mouse TCE Stim (EC50)
human neutrophils = assay: Elastase exocytosis from neutrophils (fMLP-induced); type: cell-based; settings: for EC50: neutrophil (PMN) elastase release
In short: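 Human blood neutrophils (Ficoll-Hypaque) treated with compound or DMSO, then stimulated 90 min at 37 °C with 1 μM fMLP plus 0.01 mg/mL cytochalasin B, 1.0 μM NaN3 and 5 μg/mL L-methionine. Supernatant elastase read at 410 nm over 2 h on MeO-suc-AAPV-pNA, normalized to uninhibited; EC50 in μM.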

PI3Kα = target: T1, PI3Kα (Homo sapiens, UniProt P42336); assay: Biochemical assay of PI3K potency and selectivity using 20 μM ATP, Alpha; settings: for Alpha/Delta Ratio: ratio of IC50 values, > = hypothetical ratio with 100 μM substituted for the missing IC50; for remaining activity at 100 µM: read-out: percent activity remaining at 100 μM, 20 μM ATP, 100 μM compound did not inhibit by at least 50%
T1 construct: His tag (pFastbac HTb vector) (N); FLAG; made in house; host or cells: Sf21 insect cells (baculovirus)
In short: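 Lipid-kinase radiometric assay with γ-[32P]ATP (20 μM ATP) on PIP2/PS liposomes in 20 mM HEPES pH 7.4; the 3× substrate mix held […] and 6 μM liposomes.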

T cells = assay: T cell proliferation in response to costimulation of CD3+CD28; type: cell-based; settings: Homo sapiens, highest tested concentration 10 μM, read-out: Half-maximal inhibition of thymidine incorporation (anti-CD3- and anti-CD28-induced T cell proliferation)
Description: T cell proliferation in response to costimulation of CD3+CD28 was measured. T cells were purified from healthy human blood by negative selection using antibody coated magnetic beads according to the manufacturer's protocol (Dynal) and resuspended in RPMI. The cells were treated with either DMSO or a serial dilution of D-000 in DMSO and plated at 1×10^5 cells/well on a 96-well plate precoated with goat antimouse IgG. Mouse monoclonal anti-CD3 and anti-CD28 antibodies were then added to each well at 0.2 ng/mL and 0.2 μg/mL, respectively. The plate was incubated at 37° C. for 24 hr and [^3H]-thymidine (1 μCi/well) was added. After another 18 hr incubation the cells were harvested with an automatic cell harvester, washed and the incorporated radioactivity was quantified.

K562 = assay: Cancer cell proliferation, [3H]-thymidine incorporation, K562; type: cell-based; settings: K562 line; 0.001 μM to 20 μM
Description: (§1) The effect of compounds of the invention on cancer cell proliferation was evaluated by testing one of the compounds against a panel of Chronic Myeloid Leukemia (CML) cell lines, including KU812, RWLeu4, K562, and MEG-01.
(§2) The inhibitory activity of the compound (D-000, dissolved in DMSO) was determined as follows. The tested compound was added in a series of concentrations (0.001 μM to 20 μM) to 96-well microtiter plates with cells (1000 to 5000 cells/well). Plates were incubated for five days at 37° C. during which the control cultures without test compound were able to undergo at least two cell-division cycles. Cell growth was measured by incorporation of [^3H]-thymidine for eighteen hours added at days three, four, and five. Cells were transferred to a filter, washed and the radioactivity counted using a Matrix 96 beta counter (Packard). The percentage of cell growth was measured as follows: […]

osteoclasts = assay: Osteoclast function, pit depths on dentine slices; type: cell-based, mouse
Description: To analyze the effect of the PI3Kδ inhibitor D-000 on osteoclasts, mouse bone marrow cells were isolated and differentiated them to osteoclasts by treating the cells with Macrophage Colony Stimulating Factor^−1 (mCSF^−1) and Osteoprotegerin Ligand (OPGL) in serum-containing medium (αMEM with 10% heat-inactivated FBS; Sigma) for 3 days. On day four, when the osteoclasts had developed, the medium was removed and cells were harvested. The osteoclasts were plated on dentine slices at 10^5 cells/well in growth medium, i.e., αMEM containing 1% serum and 2% BSA with […] and 10 ng/mL mCSF-1. After 3 hr, the medium was changed to 1% serum and 1% BSA, with or without osteopontin (25 μg/mL) and the PI3K inhibitors (100 nM). The medium was changed every 24 hours with fresh osteopontin and the inhibitors. At 72 hr, the medium was removed, and the dentine surfaces were washed with water to remove cell debris and stained with acid hematoxylin. Excess stain was washed and the pit depths were quantitated using confocal microscopy.

KU812 = assay: Cancer cell proliferation, [3H]-thymidine incorporation, KU812; type: cell-based; settings: Homo sapiens, 120 h; KU812 line; five days; read-out: EC50, inhibition of cell growth
Description: as §1, §2

T1 sequence (P42336 whole entry): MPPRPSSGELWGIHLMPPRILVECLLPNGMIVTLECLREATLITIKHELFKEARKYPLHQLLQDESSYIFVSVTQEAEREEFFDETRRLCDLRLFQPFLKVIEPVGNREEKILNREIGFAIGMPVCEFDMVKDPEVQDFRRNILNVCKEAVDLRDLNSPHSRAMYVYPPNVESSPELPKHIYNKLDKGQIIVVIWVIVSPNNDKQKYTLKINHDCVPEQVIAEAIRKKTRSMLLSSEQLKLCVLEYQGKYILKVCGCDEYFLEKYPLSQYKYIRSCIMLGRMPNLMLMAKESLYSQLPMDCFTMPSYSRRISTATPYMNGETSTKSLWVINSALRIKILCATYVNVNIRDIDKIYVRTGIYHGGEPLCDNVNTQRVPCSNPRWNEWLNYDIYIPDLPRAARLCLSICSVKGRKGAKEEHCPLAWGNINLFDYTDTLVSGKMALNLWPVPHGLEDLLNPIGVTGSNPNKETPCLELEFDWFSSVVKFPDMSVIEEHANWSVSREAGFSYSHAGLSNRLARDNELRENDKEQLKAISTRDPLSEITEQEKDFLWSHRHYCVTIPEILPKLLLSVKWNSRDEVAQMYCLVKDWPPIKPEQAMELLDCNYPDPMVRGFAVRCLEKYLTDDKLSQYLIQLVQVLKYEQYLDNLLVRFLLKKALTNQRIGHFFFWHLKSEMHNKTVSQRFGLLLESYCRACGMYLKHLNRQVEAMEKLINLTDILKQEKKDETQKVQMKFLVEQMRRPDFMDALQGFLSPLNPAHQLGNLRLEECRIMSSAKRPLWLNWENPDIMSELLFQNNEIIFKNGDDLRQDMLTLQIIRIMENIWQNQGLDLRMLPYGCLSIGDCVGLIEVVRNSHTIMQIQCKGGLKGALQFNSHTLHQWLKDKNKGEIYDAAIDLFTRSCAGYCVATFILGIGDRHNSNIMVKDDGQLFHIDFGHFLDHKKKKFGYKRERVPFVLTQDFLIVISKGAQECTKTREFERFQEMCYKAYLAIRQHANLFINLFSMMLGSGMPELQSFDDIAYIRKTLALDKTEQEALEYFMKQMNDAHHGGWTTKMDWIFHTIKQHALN
T1 sequence (P27986 whole entry partner): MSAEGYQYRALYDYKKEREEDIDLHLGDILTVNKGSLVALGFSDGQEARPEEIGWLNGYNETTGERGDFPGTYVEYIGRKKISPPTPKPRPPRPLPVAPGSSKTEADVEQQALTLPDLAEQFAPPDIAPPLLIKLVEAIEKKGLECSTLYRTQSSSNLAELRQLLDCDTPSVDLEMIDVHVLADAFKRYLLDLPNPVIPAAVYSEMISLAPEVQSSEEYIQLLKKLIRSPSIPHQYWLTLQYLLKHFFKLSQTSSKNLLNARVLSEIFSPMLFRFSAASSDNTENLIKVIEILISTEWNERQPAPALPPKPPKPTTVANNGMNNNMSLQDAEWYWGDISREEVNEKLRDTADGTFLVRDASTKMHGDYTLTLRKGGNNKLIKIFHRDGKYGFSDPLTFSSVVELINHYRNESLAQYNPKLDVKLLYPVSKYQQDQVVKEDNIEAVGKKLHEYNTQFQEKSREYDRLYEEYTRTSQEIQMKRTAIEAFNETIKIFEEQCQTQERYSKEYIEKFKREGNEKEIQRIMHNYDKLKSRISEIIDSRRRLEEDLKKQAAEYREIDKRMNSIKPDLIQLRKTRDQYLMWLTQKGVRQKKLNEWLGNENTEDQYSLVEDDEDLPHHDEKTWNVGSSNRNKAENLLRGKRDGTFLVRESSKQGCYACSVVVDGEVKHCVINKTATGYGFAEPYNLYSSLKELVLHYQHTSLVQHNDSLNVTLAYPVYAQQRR

Work on `O=c1c2c(F)cccc2nc(CSc2ncnc3[nH]cnc23)n1-c1ccccc1Cl` [Compound D-015, 3-(2-Chlorophenyl)-5-fluoro-2-(9H-purin-6-ylsulfanylmethyl)-3H-quinazolin-4-one] yielded a melting point of 222.7 to 223.8 °C, an EC50 (T cell proliferation) of 1.8 µM and an EC50 (human neutrophils) of 1.3 ± 0.4 µM. The “Alpha/Delta Ratio” value (PI3Kα; 20 μM ATP) was >480 and the remaining activity at 100 µM (PI3Kα) was 65%.
For `O=c1c2ccccc2nc(CSc2ncnc3[nH]cnc23)n1-c1ccccc1Cl` [Compound D-000, 3-(2-chlorophenyl)-2-(9H-purin-6-ylsulfanylmethyl)-3H-quinazolin-4-one], the IC50 (T cells) was > 10 µM, the “Effect on cell growth” value (K562) was “not found to exhibit an effect” and the “Effect on osteoclast activity” value (osteoclasts; 100 nM) was “almost completely inhibited”. For the same compound, the “Pit depths (osteoclast activity), Table 1” value (osteoclasts; inhibitor 100 nM + osteopontin (OPN) 25 μg/mL, 72 hr, two experiments, OPN alone 10 ± 0.5 and 9 ± 0.4) was 1, the EC50 (T cell proliferation) was 5.5 ± 4 µM and the EC50 (KU812) was ~2 µM. For the same compound, the IC50 (human neutrophils; Neutrophil, 1.5 h, 1 μM fMLP, 90 min, FIG. 4, read-out: Concentration of half-maximal inhibition of fMLP-induced elastase exocytosis) was 2 to 3 µM, the EC50 (human neutrophils) was 2.2 ± 2 µM and the “Alpha/Delta Ratio” value (PI3Kα; 20 μM ATP) was >302. For the same compound, the IC50 (PI3Kα; Example 2 assay conditions, limit of 100 μM compound, read-out: IC50, α isoform of PI3K (FIG. 1)) was > 100 µM and the remaining activity at 100 µM (PI3Kα) was 86%.
For `O=c1c2ccccc2nc(CSc2ncnc3[nH]ncc23)n1-c1ccccc1Cl` [Compound D-999, 3-(2-Chlorophenyl)-2-(1H-pyrazolo[3,4-d]pyrimidin-4-ylsulfanylmethyl)-3H-quinazolin-4-one, reference compound], the EC50 (T cell proliferation) was 5.9 µM, the EC50 (human neutrophils) was > 20 µM and the “Alpha/Delta Ratio” value (PI3Kα; 20 μM ATP) was 2.2. The IC50 (PI3Kα; 20 μM ATP, read-out: Alpha IC50) was 105 µM.
For `O=c1c2c(Cl)cccc2nc(CSc2ncnc3[nH]cnc23)n1-c1ccccc1Cl` [Compound D-025, 5-Chloro-3-(2-chlorophenyl)-2-(9H-purin-6-ylsulfanylmethyl)-3H-quinazolin-4-one], the melting point was 233.7 to 234.4 °C (dec.), the EC50 (T cell proliferation) was 4.4 ± 0.6 µM and the EC50 (human neutrophils) was 0.3 ± 0.2 µM. For the same compound, the “Alpha/Delta Ratio” value (PI3Kα; 20 μM ATP) was >909 and the remaining activity at 100 µM (PI3Kα) was 73%.
